According to patent US20230123334A1, “AMINO LIPID COMPOUND, PREPARATION METHOD THEREFOR, AND APPLICATION THEREOF” (SHENZHEN SHENXIN BIOTECHNOLOGY CO., LTD., priority 2020, published 2023):

Legend:
[1] = system: HEK293 cells; assay: Preliminary screening as DNA vectors, GFP transfection of HEK293 cells; type: cell-based; details: HEK293 cells; lipid/DOPE liposome with 75 ng plasmid DNA (psin-EGFP-IRES-Puro); number of cells expressing GFP divided by total number of nuclei (Hoechst)
In short: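 HEK293 cells in DMEM/10% FBS transfected with 75 ng EGFP plasmid per well complexed with amino lipid/DOPE liposomes in pH 5.6 sodium acetate. Hoechst nuclear stain added 20-24 h post-transfection, then cells cultured another 20-24 h. Confocal imaging gives GFP-positive cells as % of total nuclei.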

[2] = system: HEK293 cells; assay: Preliminary screening as mRNA vectors, EGFP mRNA transfection of HEK293 cells; type: cell-based; details: HEK293 cells, 96-well plates, EGFP mRNA 50 ng per well; percentage of GFP fluorescent cells relative to total number of cells (Hoechst)
In short: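 HEK293 cells in DMEM plus 10% FBS transfected in 96-well format with 50 ng EGFP mRNA per well; Lipofectamine2000 served as positive control. Read-out is the percentage of GFP-fluorescent cells among total cells, counted by Hoechst nuclear stain.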

SMILES | Absolute DNA transfection efficiency in HEK293 cells [1] [%] | Absolute mRNA transfection efficiency in HEK293 cells [2] [%]
CCCCCCCCCCSc1nc(NCCN2CCCC2)nc(SCCCCCCCCCC)n1 [Compound S10S10D3] | 13.6 | 5.0
CCCCCCCCCCSc1nc(NCCN2CCCCC2)nc(SCCCCCCCCCC)n1 [Compound S10S10D4] | 5.5 | 2.5
CCCCCCCCCCSc1nc(NCCN2CCN(C)CC2)nc(SCCCCCCCCCC)n1 [Compound S10S10D5] | 14.7 | 45.9
CCCCCCCCCCSc1nc(NCCCN(C)C)nc(SCCCCCCCCCC)n1 [Compound S10S10D6] | 23.6 | 59.1
CCCCCCCCCCSc1nc(NCCN(CC)CC)nc(SCCCCCCCCCC)n1 [Compound S10S10D7] | 7.2 | 2.0
CCCCCCCCCCSc1nc(NCCCN2CCOCC2)nc(SCCCCCCCCCC)n1 [Compound S10S10D8] | 14.0 | 13.8
CCCCCCCCCCSc1nc(NCCCN2CCN(C)CC2)nc(SCCCCCCCCCC)n1 [Compound S10S10D9] | 13.4 | 51.3
CCCCCCCCCCSc1nc(NCC2CCN(C)CC2)nc(SCCCCCCCCCC)n1 [Compound S10S10D10] | 18.8 | 87.1
CCCCCCCCCCCSc1nc(NCCN(C)C)nc(SCCCCCCCCCC)n1 [Compound S10S11D1] | 7.0 | 1.2
CCCCCCCCCCCSc1nc(NCCN2CCOCC2)nc(SCCCCCCCCCC)n1 [Compound S10S11D2] | 2.2 | 0.6
CCCCCCCCCCCSc1nc(NCCN2CCCC2)nc(SCCCCCCCCCC)n1 [Compound S10S11D3] | 6.8 | 4.4
CCCCCCCCCCCSc1nc(NCCN2CCCCC2)nc(SCCCCCCCCCC)n1 [Compound S10S11D4] | 16.7 | 0.0
CCCCCCCCCCCSc1nc(NCCN2CCN(C)CC2)nc(SCCCCCCCCCC)n1 [Compound S10S11D5] | 8.4 | 61.1
CCCCCCCCCCCSc1nc(NCCCN(C)C)nc(SCCCCCCCCCC)n1 [Compound S10S11D6] | 8.2 | 83.8
CCCCCCCCCCCSc1nc(NCCN(CC)CC)nc(SCCCCCCCCCC)n1 [Compound S10S11D7] | 7.3 | 1.8
CCCCCCCCCCCSc1nc(NCCCN2CCOCC2)nc(SCCCCCCCCCC)n1 [Compound S10S11D8] | 16.4 | 8.3
CCCCCCCCCCCSc1nc(NCCCN2CCN(C)CC2)nc(SCCCCCCCCCC)n1 [Compound S10S11D9] | 13.6 | 60.6
CCCCCCCCCCCSc1nc(NCC2CCN(C)CC2)nc(SCCCCCCCCCC)n1 [Compound S10S11D10] | 13.3 | 93.7
